Common to all, as to type: functional
The subject of experiment [1] is Bacillus cereus. The experiment in a line: Antibacterial activity against Bacillus cereus ATCC 11778.
Experiment [2] relates to Staphylococcus aureus. The experiment in a line: Antibacterial activity against Staphylococcus aureus ATCC 2587.
Experiment [3] has as its system Escherichia coli. As to the kind of experiment: Antibacterial activity against Escherichia coli ATCC 8739.
Experiment [4] has as its system Moraxella catarrhalis. The experiment in a line: Antibacterial activity against Moraxella catarrhalis […].
Experiment [5] relates to Cryptococcus neoformans. As to the kind of experiment: Antifungal activity against Cryptococcus neoformans ATCC 90112.
The subject of experiment [6] is Candida albicans. The experiment in a line: Antifungal activity against Candida albicans ATCC 10231.
Experiment [7] concerns Bacillus subtilis. As to the kind of experiment: Antibacterial activity against Bacillus subtilis.
Experiment [8] relates to Candida albicans. The experiment in a line: Antifungal activity against Candida albicans.
Experiment [9] concerns Nakaseomyces glabratus. The experiment in a line: Antifungal activity against Candida glabrata.

In brackets after ≈: the same amount, converted by molar mass. Bounds are passed on as bounds.

A word on the MIC: it is the least concentration at which growth counts as inhibited. Read a low MIC as a more susceptible organism. Regarding `COc1cc2oc3ccccc3c(=O)c2cc1OC`, the MIC in [1] came out at 46.9 µg/mL (≈ 183 µM); in experiment [2], 62.5 µg/mL (≈ 244 µM); in [3] it was 125 µg/mL (≈ 488 µM); in [4], 125 µg/mL (≈ 488 µM); in experiment [5], 31.3 µg/mL (≈ 122 µM); in experiment [6], 31.3 µg/mL (≈ 122 µM).
With `COc1ccc2oc3ccccc3c(=O)c2c1`, the MIC was 312 µg/mL (≈ 1380 µM) in [1]; 156 µg/mL (≈ 690 µM) in experiment [2]; 312 µg/mL (≈ 1380 µM) in experiment [3]; 625 µg/mL (≈ 2760 µM) in experiment [4]; 78.1 µg/mL (≈ 345 µM) in experiment [5]; 156 µg/mL (≈ 690 µM) in experiment [6].
Consider `COC12C=CC(=O)C=C1C(=O)c1ccccc1O2` (centres undefined), for which the MIC in experiment [1] amounted to 31.3 µg/mL (≈ 129 µM); in experiment [2], 93.7 µg/mL (≈ 387 µM); in experiment [3], 125 µg/mL (≈ 516 µM); in experiment [4], 125 µg/mL (≈ 516 µM); in experiment [5], 3.6 µg/mL (≈ 14.9 µM); in [6], 3.6 µg/mL (≈ 14.9 µM).
As to `COc1c(O)ccc2oc3ccccc3c(=O)c12`, the minimal inhibitory concentration (MIC) in [1] was 31.3 µg/mL (≈ 129 µM); in experiment [2], 125 µg/mL (≈ 516 µM); in experiment [3] it was 125 µg/mL (≈ 516 µM); in experiment [4], 125 µg/mL (≈ 516 µM); in [5] it was 15.6 µg/mL (≈ 64.4 µM); in experiment [6], 31.3 µg/mL (≈ 129 µM).
For the compound `COC12C=CC(=O)C=C1C(=O)c1cc(Br)ccc1O2` (centres undefined), the MIC in [1] was determined as 31.3 µg/mL (≈ 97.5 µM); in experiment [2] it was 62.5 µg/mL (≈ 195 µM); in experiment [3], 62.5 µg/mL (≈ 195 µM); in experiment [4], 125 µg/mL (≈ 389 µM); in experiment [5] it was 15.6 µg/mL (≈ 48.6 µM); in [6] it was 7.8 µg/mL (≈ 24.3 µM).
For the compound `O=c1c2cc(O)ccc2oc2ccc(Br)cc12`, the minimum inhibitory concentration (MIC) in [1] was 31.3 µg/mL (≈ 108 µM); in experiment [2] it was 250 µg/mL (≈ 859 µM); in experiment [3], 125 µg/mL (≈ 429 µM); in experiment [4], over 250 µg/mL; in [5], 11.7 µg/mL (≈ 40.2 µM); in experiment [6], 31.3 µg/mL (≈ 108 µM).
With `COC1=CC2(OC)Oc3ccc(Br)cc3C(=O)C2=CC1=O` (centres undefined), the minimal inhibitory concentration (MIC) in experiment [1] came to 31.3 µg/mL (≈ 89.1 µM); in [2] it was 62.5 µg/mL (≈ 178 µM); in experiment [3], 188 µg/mL (≈ 534 µM); in [4] it was 125 µg/mL (≈ 356 µM); in experiment [5] it was 15.6 µg/mL (≈ 44.4 µM); in experiment [6] it was 31.3 µg/mL (≈ 89.1 µM).
For the compound `COC1=CC2(Oc3ccc(Br)cc3C2=O)C(OC)=CC1=O` (centres undefined), the MIC is 31.3 µg/mL (≈ 89.1 µM) in experiment [1]; 62.5 µg/mL (≈ 178 µM) in experiment [2]; 62.5 µg/mL (≈ 178 µM) in experiment [3]; 125 µg/mL (≈ 356 µM) in [4]; 15.6 µg/mL (≈ 44.4 µM) in [5]; 31.3 µg/mL (≈ 89.1 µM) in experiment [6].
For the compound `COc1cc2oc3ccc(Br)cc3c(=O)c2cc1O`, the MIC in [1] was found to be 31.3 µg/mL (≈ 97.5 µM); in experiment [2], 62.5 µg/mL (≈ 195 µM); in experiment [3] it was 125 µg/mL (≈ 389 µM); in experiment [4], 125 µg/mL (≈ 389 µM); in experiment [5] it was 15.6 µg/mL (≈ 48.6 µM); in [6], 31.3 µg/mL (≈ 97.5 µM).
Take `COC1=CC2(Oc3ccc(-c4ccccc4)cc3C2=O)C(OC)=CC1=O` (centres undefined): the MIC is 46.9 µg/mL (≈ 135 µM) in experiment [1]; 62.5 µg/mL (≈ 179 µM) in experiment [2]; 125 µg/mL (≈ 359 µM) in [3]; over 250 µg/mL in [4]; 23.4 µg/mL (≈ 67.2 µM) in [5]; 31.3 µg/mL (≈ 89.9 µM) in experiment [6].
Turning to `COC1=CC2(Oc3ccc(-c4ccccc4C=O)cc3C2=O)C(OC)=CC1=O` (centres undefined), the MIC in experiment [1] amounted to 15.6 µg/mL (≈ 41.4 µM); in [2], 15.6 µg/mL (≈ 41.4 µM); in [3] it was 62.5 µg/mL (≈ 166 µM); in experiment [4], 125 µg/mL (≈ 332 µM); in [5], 15.6 µg/mL (≈ 41.4 µM); in experiment [6], 31.3 µg/mL (≈ 83.2 µM).
Regarding `COC12Oc3ccccc3C(=O)C1=CC(=O)c1ccccc12` (centres undefined), the MIC in experiment [1] was 19.5 µg/mL (≈ 66.7 µM); in experiment [2], 78.1 µg/mL (≈ 267 µM); in experiment [3], 156 µg/mL (≈ 534 µM); in [4], 78.1 µg/mL (≈ 267 µM); in experiment [5] it was 19.5 µg/mL (≈ 66.7 µM); in [6], 78.1 µg/mL (≈ 267 µM).
With `COC12Oc3ccc(Cl)cc3C(=O)C1=CC(=O)c1ccccc12` (centres undefined), the MIC was determined as 78.1 µg/mL (≈ 239 µM) in [1]; 19.5 µg/mL (≈ 59.7 µM) in [2]; 469 µg/mL (≈ 1430 µM) in experiment [3]; 312 µg/mL (≈ 956 µM) in [4]; 29.2 µg/mL (≈ 89.4 µM) in experiment [5]; 469 µg/mL (≈ 1430 µM) in experiment [6].
`COC1=CC2(Oc3ccc(Cl)cc3C2=O)C(OC)=CC1=O` (centres undefined): the minimum inhibitory concentration (MIC) is 156 µg/mL (≈ 509 µM) in experiment [1]; 156 µg/mL (≈ 509 µM) in experiment [2]; 312 µg/mL (≈ 1020 µM) in experiment [3]; 312 µg/mL (≈ 1020 µM) in experiment [4]; 39 µg/mL (≈ 127 µM) in experiment [5]; 156 µg/mL (≈ 509 µM) in [6].
Regarding `COc1cc2oc3ccc(Cl)cc3c(=O)c2cc1OC`, the minimum inhibitory concentration (MIC) in experiment [1] was determined as 312 µg/mL (≈ 1070 µM); in [2], 117 µg/mL (≈ 403 µM); in [3] it was 312 µg/mL (≈ 1070 µM); in [4], 625 µg/mL (≈ 2150 µM); in [5], 78.1 µg/mL (≈ 269 µM); in experiment [6], 156 µg/mL (≈ 537 µM).
In the case of `COC1=CC2(OC)Oc3ccc(Cl)cc3C(=O)C2=CC1=O` (centres undefined), the minimum inhibitory concentration (MIC) was found to be 39 µg/mL (≈ 127 µM) in [1]; 39 µg/mL (≈ 127 µM) in [2]; 156 µg/mL (≈ 509 µM) in experiment [3]; 156 µg/mL (≈ 509 µM) in [4]; 15.6 µg/mL (≈ 50.9 µM) in [5]; 20.8 µg/mL (≈ 67.8 µM) in experiment [6].
For the compound `COc1ccc2oc3ccc(Cl)cc3c(=O)c2c1`, the minimum inhibitory concentration (MIC) in [1] was 625 µg/mL (≈ 2400 µM); in [2], 234 µg/mL (≈ 899 µM); in experiment [3], 625 µg/mL (≈ 2400 µM); in experiment [4] it was 1250 µg/mL (≈ 4800 µM); in [5], 156 µg/mL (≈ 599 µM); in experiment [6], 234 µg/mL (≈ 899 µM).
Regarding `COC12C=CC(=O)C=C1C(=O)c1cc(Cl)ccc1O2` (centres undefined), the minimum inhibitory concentration (MIC) in experiment [1] came out at 156 µg/mL (≈ 565 µM); in [2], 156 µg/mL (≈ 565 µM); in experiment [3] it was 312 µg/mL (≈ 1130 µM); in [4], 156 µg/mL (≈ 565 µM); in experiment [5], 7.8 µg/mL (≈ 28.2 µM); in experiment [6], 156 µg/mL (≈ 565 µM).
Consider `CC1(C)C=Cc2c(cc3oc4c(O)cccc4c(=O)c3c2O)O1`, for which, in experiment [7], the minimal inhibitory concentration (MIC) was 4.6 µM (≈ 1.43 µg/mL).
Consider `O=C(O)c1cn(C2CC2)c2cc(N3CCNCC3)c(F)cc2c1=O` [CIPROFLOXACIN], for which the minimum inhibitory concentration (MIC) stood at 0.08 µg/mL (≈ 0.241 µM) in experiment [1], 1.25 µg/mL (≈ 3.77 µM) in experiment [2] and 1.25 µg/mL (≈ 3.77 µM) in experiment [4].
Compound `COC1=CC(=O)C[C@@H](C)[C@]12Oc1c(Cl)c(OC)cc(OC)c1C2=O` [GRISEOFULVIN] came in with an MIC in experiment [8] of 20 µg/mL (≈ 56.7 µM).
On to `CC(C)=CCc1cccc2c(=O)c3c(O)cc4c(c3oc12)C=CC(C)(C)O4` [LAURENTIXANTHONE A], for which, in experiment [9], 2.44 µM (≈ 0.884 µg/mL) was the least that counted as inhibitory (MIC).

The record behind these values is ChEMBL document CHEMBL1921755, “The synthesis of xanthones, xanthenediones, and spirobenzofurans: their antibacterial and antifungal activity” (2011).
